Measurements: patent US8598316B2, “Molecules that selectively home to vasculature of pre-malignant dysplastic lesions or malignancies” (priority 2003, dated 2013)

Key:
[1] = tested on: K14-HPV16 tumor-derived cell suspension; assay: Ex vivo phage binding to tumor cell suspension; format: cell-based, mouse; details: phage-displayed peptide
Method: (§1) To isolate peptides specific for dysplastic lesions, two rounds of selection were performed ex vivo followed by one round of selection in vivo. […] Phage selections and validations were performed essentially as described in Laakkonen et al., Nat. Med. 8:751-755 (2002).
(§2) To isolate phage that selectively home to squamous cell carcinomas (SCCs), two rounds of ex vivo panning selections were performed followed by two rounds of in vivo panning in K14-HPV16 mice having tumors histologically confirmed as squamous cell carcinoma grades II-IV (Coussens, supra, 1996). The enrichment rose from 6-fold relative to non-recombinant phage in the second ex vivo round to greater than 70-fold relative to non-recombinant phage in the second in vivo round (the fourth sequential round overall) as shown in FIG. 1B. From 192 sequenced phage clones, fifteen were selected for further analysis based on their frequency (48 from ex vivo round 2, 48 from in vivo round 1, and 96 from in vivo round 2) and their increased prevalence in the in vivo selections. Of these, four clones displaying the following amino acid sequences bound to a K14-HPV16 tumor-derived cell suspension ex vivo: CGKRK (SEQ ID NO: 6), CGTKRKC (SEQ ID NO: 11), CDTAVVEGL (SEQ ID NO: 12) and CDTRL (SEQ ID NO: 7). Phage-displaying the sequence CDTAVVEGL (SEQ ID NO: 12) also were 340-fold enriched in tumors in vivo relative to non-recombinant control phage.

[2] = tested on: CD31-positive endothelial cells; assay: Immunohistochemical localization of intravenously injected phage (anti-T7 / anti-CD31); format: in vivo, mouse; details: phage-displayed peptide, intravenous; 4 to 6 month-old dysplasia-bearing or 9 to 12 month-old tumor-bearing K14-HPV16 mice
Text: To characterize the nature of the selectivity of the dysplasia- and tumor-homing peptides, K14-HPV16 mice were intravenously injected with cloned phage displaying a particular peptide, and phage localization visualized using histological procedures. Peptide localization was further analyzed with chemically synthesized fluorescein-labeled peptides.
Phage were intravenously injected into 4 to 6 month-old dysplasia-bearing mice with dysplasia-homing phage bearing CSRPRRSEC (SEQ ID NO: 3). In parallel, a set of 9 to 12 month-old tumor-bearing mice were infused with one of the tumor-homing phage CGTKRKC (SEQ ID NO: 11), CGKRK (SEQ ID NO: 6) or CDTRL (SEQ ID NO: 7). Various tissues were collected from each mouse and analyzed by double label immunohistochemical staining using an anti-T7 antibody to detect phage and an anti-CD31 antibody to detect endothelial cells of the vasculature.
(§3) Areas of skin, tumors and various organs were collected and either fixed in formalin, dehydrated through serial alcohols and embedded in paraffin, or directly embedded in OCT medium (Fisher Scientific). K14-HPV16 dysplasia and tumor samples were graded by evaluating hematoxylin & eosin and anti-keratin staining on 5 μm paraffin sections under a light microscope (Coussens et al., supra, 1996). Rat anti-mouse CD31 and rat anti-mouse Meca-32 (BD Pharmingen; San Diego, Calif.) were used for vascular immunostaining on 10 μm frozen sections. Anti-phage staining and biodistribution of fluorescein-labeled peptides were performed essentially as described in Laakkonen et al., supra, 2002.

[3] = tested on: PDSC5, a K14-HPV16 tumor-derived cell line; assay: Fluorescein-labeled peptide homing, PDSC5 subcutaneous transplant tumor; format: in vivo, mouse; details: intravenous, subcutaneous tumor in FVB/n mice
Method: (§4) To analyze homing selectivity, the K14-HPV16 squamous cell cancer-homing peptides, CGKRK (SEQ ID NO: 6) and CDTRL (SEQ ID NO: 7), were analyzed for the ability to home to endothelium in tumors of different tissue origins and in tumors localized to different anatomical locations. In particular, three subcutaneously implanted tumors and two tumors produced in transgenic animal models were examined for accumulation of fluorescein-labeled peptides following intravenous injection
(§5) RIP1-Tag2 mice were used at 12 weeks of age, at which time all mice had pancreatic islet tumors. MMTV-PyMT mice were 4 to 6 months old and carried palpable mammary tumors. Cells for subcutaneous inoculation to produce transplant tumors were cultured in 10% fetal calf serum (FCS) in Dulbecco's Modified Eagle's Media (DMEM). Tumors were generated by subcutaneously injecting 10^6 cells into the chest skin of FVB/n (PDSC5) or Balb/c nude (MDA-MB-435 and C8161) mice. Mice bearing subcutaneous transplant tumors had tumors with an approximate diameter of 1 centimeter. PDSC5 tumors and MDA-MB-435 xenografts reached this size about 9 weeks post-injection while C8161 xenografts reached a size of 1 cm about three weeks post-injection.

cultured tumor cells = assay: Binding to cultured tumor cells; format: cell-based
dysplastic skin lesions = assay: In vivo homing of individual phage clones to dysplastic skin of K14HPV16 mice; design: species or system mouse; details: phage-displayed peptide, intravenous injection
Method: as §1
(§6) To test homing specificity of the selected peptides, purified phage displaying a single recombinant sequence were intravenously injected into K14HPV16 mice bearing protuberant ear or trunk tumors at 9 to 12 months of age to assess homing to squamous cell carcinomas, or alternatively injected into younger K14HPV16 mice presenting with multifocal dysplasias but no tumors. Both neoplastic tissues and normal control organs were collected and assayed for phage accumulation. Phage displaying the peptide CRAKSKVAC (SEQ ID NO: 9), which appeared with the highest frequency in both the ex vivo and in vivo sequence pools (5 and 15 times, respectively), were 1500-fold enriched in dysplastic skin relative to non-recombinant control phage. However, phage displaying peptide. […] Several other dysplasia-selected clones also differentiated poorly between control tissues and dysplastic skin; seven of the nine dysplasia-selected phage clones appeared to be responsible for the overall enrichment of recombinant phage in control tissues in the final in vivo round of selection as shown in FIG. 1A (right panel), and were not studied further.

[4] = tested on: MDA-MB-435 human breast cancer line; assay: Fluorescein-labeled peptide homing, MDA-MB-435 xenograft; format: in vivo, mouse; details: for homing to MDA-MB-435 xenograft: intravenous, subcutaneous tumor in Balb/c nude mice
Method: as §4, §5

[5] = tested on: angiogenic islets (dysplasias) or tumors in the RIP-Tag transgenic mouse model of pancreatic islet cell carcinoma; assay: Fluorescein-labeled peptide homing, RIP-Tag transgenic model; format: in vivo; details: intravenous
Method: as §4, §5

[6] = tested on: breast carcinomas in the MMTV-PyMT transgenic mouse model; assay: Fluorescein-labeled peptide homing, MMTV-PyMT transgenic model; format: in vivo; details: intravenous
Method: as §4, §5

squamous cell carcinomas = assay: In vivo homing of individual phage clones to skin tumors of K14-HPV16 mice; design: species or system mouse; details: phage-displayed peptide, intravenous injection, tumor-bearing K14-HPV16 mice
Text: as §6, §2

[7] = tested on: C8161 human melanoma line; assay: Fluorescein-labeled peptide homing, C8161 xenograft; format: in vivo, mouse; details: intravenous, subcutaneous tumor in Balb/c nude mice
Method: as §4, §5

[8] = tested on: normal skin and control tissues; assay: In vivo phage accumulation in normal skin, hyperplastic skin and control organs; design: species or system mouse; details: phage-displayed peptide; for accumulation in control tissues / normal organs: intravenous injection; for homing to normal skin of FVB/n mice: wild-type FVB/n mice
Text: as §6

[9] = tested on: dysplastic skin vasculature and tumor vasculature; assay: Localization of intravenously injected fluorescein-labeled peptides in K14-HPV16 mice (Meca-32 staining); format: in vivo, mouse; details: intravenous, 10 minutes; for peptide localization in dysplastic skin of tumor-bearing mice / peptide localization in squamous tumor: tumor-bearing K14-HPV16 mice; for peptide localization in dysplastic skin of non-tumor-bearing mice: younger dysplasia-bearing K14-HPV16 mice
Method: Both younger dysplasia-bearing and older tumor-bearing K14-HPV16 mice were injected with fluorescein-labeled peptides. After 10 minutes, both normal and neoplastic tissues were collected; tissue sections were prepared and stained with antibodies to both CD31 and a second endothelial marker, the cell-surface antigen Meca-32. Similar results were obtained with the two endothelial marker antibodies; the data for Meca-32 are shown in FIG. 3, in which localization of intravenously infused peptides and antibody was visualized by two-color fluorescence microscopy.
as §3

[10] = tested on: hyperplastic skin of 1 to 2 month-old K14-HPV16 mice; assay: Ex vivo phage binding to hyperplastic skin; format: cell-based, mouse; details: phage-displayed peptide
mitochondrial membranes = details: at a concentration of 10 μM; cited from earlier work

CGTKRKC (phage-displayed)
binding to K14-HPV16 tumor-derived cell suspension ex vivo [1]: bound | tissue localization of phage by immunohistochemical staining [2]: detected to a lesser extent in dysplastic skin of tumor-bearing mice

CGKRK [tumor-homing peptide]
homing to PDSC5 transplant tumor [3]: homed to cells in each of the three transplant tumors | binding to cultured tumor cells (cultured tumor cells): bind a range of cultured tumor cells | homing to dysplastic skin (dysplastic skin lesions): Some homing to dysplastic lesions | subcellular localization in vascular cells ([4]; FIG. 4D, endothelial cells (CD31, Meca-32)): localized in the cytoplasm and nuclei of vascular cells | homing to MDA-MB-435 xenograft [4]: homed to cells in each of the three transplant tumors | homing to angiogenic islets or tumors of RIP-Tag mice [5]: neither peptide CGKRK (SEQ ID NO: 6) nor CDTRL (SEQ ID NO: 7) homed to angiogenic islets (dysplasias) or tumors | homing to MMTV-PyMT breast carcinomas [6]: did home to breast carcinomas | enrichment in tumors in vivo relative to non-recombinant control phage (squamous cell carcinomas): 80 to 1,000 fold | homing to tumor (squamous cell carcinomas): marked preference for the tumor | homing to C8161 melanoma xenograft [7]: homed to cells in each of the three transplant tumors | binding to K14-HPV16 tumor-derived cell suspension ex vivo [1]: bound | accumulation in control tissues / normal organs [8]: very low levels | tissue localization of phage by immunohistochemical staining [2]: accumulated in tumor tissue | peptide localization in dysplastic skin of tumor-bearing mice [9]: at lower levels | peptide localization in squamous tumor [9]: primarily detected in tumor vasculature | peptide localization in dysplastic skin of non-tumor-bearing mice [9]: not detected in the dysplastic skin of younger non-tumor bearing mice

CDTAVVEGL (phage-displayed)
enrichment in tumors in vivo relative to non-recombinant control phage (squamous cell carcinomas): 340 fold | binding to K14-HPV16 tumor-derived cell suspension ex vivo [1]: bound

CRAKSKVAC (phage-displayed)
enrichment in dysplastic skin relative to non-recombinant control phage (dysplastic skin lesions): 1500 fold | accumulation in control tissues / normal organs [8]: accumulated with similar frequency in normal skin, kidney and brain

CSRPRRSEC [dysplasia-homing peptide from CX7C library]
enrichment in dysplastic skin relative to non-recombinant control phage (dysplastic skin lesions): ~350 fold | homing to dysplastic skin (dysplastic skin lesions): effectively homed to dysplastic chest skin and dysplastic ear skin | homing to dysplastic skin (dysplastic skin lesions; listed as CSRPRRSRC): maintained the ability to home | homing to angiogenic islets or tumors of RIP-Tag mice [5]: does not recognize pre-malignant lesions | homing to tumor (squamous cell carcinomas): little homing to the tumor | homing to normal skin of FVB/n mice ([8]; in vivo): did not home to normal skin of FVB/n mice | accumulation in control tissues / normal organs [8]: did not significantly accumulate in control tissues | tissue localization of phage by immunohistochemical staining [2]: accumulated in dysplastic skin | peptide localization in dysplastic skin of tumor-bearing mice [9]: co-localized with Meca-32 in dysplastic skin vasculature | peptide localization in squamous tumor [9]: not detected within the squamous tumor | peptide localization in dysplastic skin of non-tumor-bearing mice [9]: co-localized with Meca-32 in dysplastic skin vasculature | binding to hyperplastic skin ex vivo [10]: did not bind to hyperplastic skin

CDTRL [tumor-homing peptide]
homing to PDSC5 transplant tumor [3]: accumulated only in the melanoma xenografts | binding to cultured tumor cells (cultured tumor cells): bind a range of cultured tumor cells | homing to MDA-MB-435 xenograft [4]: accumulated only in the melanoma xenografts | homing to angiogenic islets or tumors of RIP-Tag mice [5]: neither peptide CGKRK (SEQ ID NO: 6) nor CDTRL (SEQ ID NO: 7) homed to angiogenic islets (dysplasias) or tumors | homing to MMTV-PyMT breast carcinomas [6]: did home to breast carcinomas | homing to tumor (squamous cell carcinomas): variable preference for squamous cell carcinomas and dysplastic lesions | homing to C8161 melanoma xenograft [7]: accumulated only in the melanoma xenografts | binding to K14-HPV16 tumor-derived cell suspension ex vivo [1]: bound | affinity for hyperplastic skin ([8]; in vivo, K14-HPV16 mice): little affinity for hyperplastic skin | homing to normal skin of FVB/n mice ([8]; in vivo): no significant homing to normal skin | tissue localization of phage by immunohistochemical staining [2]: localized to large, dilated vessels throughout the dysplastic and hyperplastic skin | peptide localization in dysplastic skin of tumor-bearing mice [9]: at lower levels | peptide localization in squamous tumor [9]: primarily detected in tumor vasculature | peptide localization in dysplastic skin of non-tumor-bearing mice [9]: not detected in the dysplastic skin of younger non-tumor bearing mice

D(KLAKLAK)2
mitochondrial swelling (mitochondrial membranes): marked mitochondrial swelling

CNRRTKAGC (phage-displayed)
homing to dysplastic skin (dysplastic skin lesions): highly selective for dysplastic skin | accumulation in control tissues / normal organs [8]: did not appreciably home to normal organs
